According to patent US8648071B2, “Hydrazonamide compounds that modulate Hsp90 activity” (Synta Pharmaceuticals Corp., priority 2008, dated 2014):

Test system: Her2
Test: Degradation of Her2 in BT-474 cells, Western blot (Method 1)
Type: cell-based, human
Settings: 0.5 μM, overnight
Procedure: Human high-Her2 breast carcinoma BT474 (HTB-20), SK-BR-3 (HTB-30) and MCF-7 breast carcinoma (HTB-22) from American Type Culture Collection, VA, USA were grown in Dulbecco's modified Eagle's medium with 4 mM L-glutamine and antibiotics (100 IU/ml penicillin and 100 μg/ml streptomycine; GibcoBRL). To obtain exponential cell growth, cells were trypsinized, counted and seeded at a cell density of 0.5×10^6 cells/ml regularly, every 3 days. All, experiments were performed on day 1 after cell passage.
BT-474 cells are treated with 0.5 μM, 2 μM, or 5 μM of 17AAG (a positive control) or 0.5 μM, 2 μM, or 5 μM of a compound of the invention overnight in DMEM medium. After treatment, each cytoplasmic sample is prepared from 1×10^6 cells by incubation of cell lysis buffer (#9803, Cell Signaling Technology) on ice for 10 minutes. The resulting supernatant used as the cytosol fractions is dissolved with sample buffer for SDS-PAGE and run on a SDS-PAGE gel, blotted onto a nitrocellulose membrane by using semi-dry transfer. Non-specific binding to nitrocellulose is blocked with 5% skim milk in TBS with 0.5% Tween at room temperature for 1 hour, then probed with anti-Her2/ErB2 mAb (rabbit IgG, #2242, Cell Signaling) and anti-Tubulin (T9026, Sigma) as housekeeping control protein. […]

SMILES: C=CCNC1=C2C[C@@H](C)C[C@H](OC)[C@H](O)[C@@H](C)/C=C(\C)[C@H](OC(N)=O)[C@@H](OC)/C=C\C=C(/C)C(=O)NC(=CC1=O)C2=O [Compound 17AAG, 17-allylamino-17-demethoxygeldanamycin]
- degradation of Her2: partial degradation of Her2
